# Source: patent publication US12138266B2, “Folate preparations” (APROFOL AG, priority 2018, dated 2024)
# Experiments:
# [1] = test system: reconstructed skin models (epiCS); experiment: Bioavailability: transport through reconstructed skin models into basal compartment (LC/MS); format: in vitro ADME, human
# Description: In order to test the bioavailability in tissues such as skin, reconstructed skin models (epiCS, CS-1001, CellSystems, Troisdorf) were used which are generated from primary human keratinocytes. These models show a barrier very similar to human skin. They are regularly used as test models for the approval-relevant determination of corrosive or irritating effects of cosmetic raw materials. The skin models can usually be treated with finished products, as they are intended for use by the consumer. Nevertheless, before the skin models are treated with the test products, an assessment of the tolerability of the models is made to avoid overdosing.
# The skin models were cultured on a porous membrane as mentioned above. The skin cells growing on it separate an apical compartment (with the skin model) from a basal compartment (with the nutrient medium). Mass transport from the apical to the basal compartment is thus almost exclusively possible through the cells. The only alternative to this is paracellular diffusion, which however, due to the functional tight junctions, is only possible for a few molecules and to a very limited extent. To determine the bioavailability of the products, the barrier is checked for leaks before use by means of resistance measurements. […] Suitable skin models are then treated topically with the test products. After 4 h, 8 h and 24 h, samples of the medium were taken in the basal part of the models to check for the presence and concentration of folates. Each test product and controls are tested at a concentration of three replicates each. The studies were repeated to obtain results from two independent runs. The determination of the folate contents of the media samples was started with the analysis of the 24 h values.
# The analysis of the media samples was carried out by way of a LC/MS method established at a commercial service provider. The sensitivity of the method is in the range of 1 nmol/L. Before the start of the investigations, an estimate of the feasibility or a preliminary test was carried out in order to be able to assess the suitability of the method.
# In addition, the topically applied amount was reduced to 50 μL each. In addition, in the main experiment, the lower compartment was not filled with medium (contains folic acid) but with 1 mL Hank balanced salt solution (without folic acid). Following a total of 24 hours incubation with the test substances, the skin models were again incubated with Resazurin to. […] In the main trial, two independent passes were completed.
# In the lower compartment, 1 mL each of HBSS was initially charged. The results shown in the figures mentioned above were determined from 100 μL aliquots of this buffer amount.
# In the apical compartment, 3 μmol of folate (solutions) or 0.3 μmol of folate are supplemented (in 50 μL).
# [2] = test system: human skin; experiment: Skin penetration determined by Raman spectroscopy on forearm of a subject; format: in vivo; details: for Calcium levoleucovorin penetrated into the skin per area: surface to depth of 30 μm
# Method: In a further experiment it was examined if calcium levoleucovorin is able to penetrate skin. Penetration depth was determined by way of Raman spectroscopy. The measurement device was an inverse Raman microscope model 3510 with 60× oil immersion lens and evaluation software SkinTools of the company RiverD Rotterdam and the method were 10 profiles per application, measuring time of 5 seconds per measuring point, 7 steps of 2 μm, 4 steps of 4 μm, spectral range of 400-1800 cm^−1, at a laser excitation wavelength of 785 nm. Signals were generated with the software SkinTools that contains various skin and device specific spectra. The user can add their own spectra to the library. The evaluation is carried out via the CLS procedure (least squares method). The signals are output as a fit coefficient normalized to the fit coefficient of keratin.
# For a quantitative indication of the result, a calibration must be carried out with standard series (see Tab. 1 and Tab. 2). First, the sensitivity of bovine serum albumin (BSA) is determined and the mass concentration BSA in g/ml is plotted against the BSA fit coefficient. A linear regression with fixed zero gives slope S. For the active substance, the molar concentration in mmol/ml is plotted against the drug coefficient multiplied by the BSA fit coefficient. This gives the slopes SA of the active ingredient. With the slopes, a so-called quantification factor of the drug can be created (SA/S=C). Multiplied by the factor C, the coefficient of fit of the active substance becomes the quantified value with the unit mmol/g of keratin.
# The application of the drug or placebo (sodium gluconate) to the skin of a subject was done as follows: 20 μL was pipetted into an allergy patch and this was then stuck onto the forearm of a subject for a period of 30, 60, 120 and 240 minutes. At the end of the application time, the allergy patch was removed. Prior to determining the Raman profiles, the treated skin area was rubbed with a dry paper towel.
# [3] = test system: primary keratinocytes of human skin; details: keratinocyte monolayer, MTT, 24 h; concentration based on the undiluted solution (2.5%) or the cream (=100%)
# Method: In a preliminary experiment, the usable dose was determined.
# For this test, the keratinocytes were seeded on 96-well plates and incubated with five dilutions of the solutions or the cream for 24 h. Subsequently, a vital dye was added and finally, the colour change caused by the conversion of the vital dye in living cells was photometrically quantified.
# FIG. 1 and FIG. 2 show the determination of the usable dosage of the test substances. Cytotoxicity test with keratinocytes in monolayer culture after conversion of the vital dye MTT by living cells. The concentration data are based on the undiluted solutions or the cream (=100%). Treatment time=24 h. Untreated cultures served as negative controls. SDS served as a positive control (“dead control”). N=6+SEM
# IC70 values were calculated by nonlinear regression (Hill Slope, GraphPad Prism 5.04). The term IC70 denotes the concentration at which the viability of the treated cell culture is reduced to 70% of the untreated control. IC70 is often referred to as the border between toxicity and non-toxic effect.
# [4] = test system: primary keratinocytes of human skin; experiment: Scratch Assay (in vitro wound healing model); format: cell-based; details: for free wound surface in photographs: 0.1%
# Description: To examine the effect of different folate preparations on wound healing the in vitro model Scratch Assay was employed. This in vitro model comprises the defined injuring of a closed cell layer and the subsequent regrowth of the cells to a closed layer in the presence of the test-substance compared to appropriate controls, i.e. (untreated) cells with no test-substance present.
# The experimental procedure for the Scratch Assay was as follows: The employed cells are primary keratinocytes of human skin (C-12005, Promocell, Heidelberg, Germany). […] Three different dosages were then used for the Scratch Assay. Further, cells were cultivated in growth-limiting medium in order to show a possible growth promoting effect of the test substances. For the medium used (C-20011, Promocell, Heidelberg, Germany) a growth limitation could be achieved by either the omission or dilution of epidermal growth factor (EGF) or of a complex mixture of undefined factors derived from […] BPE). Usually, growth-limiting medium was achieved by the omission of EGF. For the actual Scratch Assay keratinocytes were cultivated in appropriate cell culture plates (6-well plates, 657160, Greiner BioOne, Frickenhausen, Germany) bearing position markings. Cells were grown to a closed monolayer. Then, cells were scratched with pipette tip along the position markings, thereby generating a cell free area (scratch, injury). Cell monolayers were washed to remove partially detached cells and then covered with medium comprising the test-substances in appropriate dosages. Regrowth of the cells into the cell free area was observed over time at 0 h, 6 h and 24 h and photographically documented at these times. Analysis was done by marking and calculating the cell-free area (software ImageJ) and comparing the calculated areas at the different time point. […]
# FIGS. 4 and 5 show the cell-free area of the induced scratch after 6 h or 24 h. The measured values were expressed as a percentage of the starting area of the respective treatment group. […]
molecule,measurement,setting,value
5-formyl-(6S)-tetrahydrofolic acid calcium salt [L-FTHF Ca],folic acid concentration (comparison with other skin models),[1]; after 24 h,twice as high
same,methylfolate concentration in basal compartment (comparison),[1]; after 24 h,relatively high
same,formylfolate concentration in basal compartment,"[1]; after 24 h, outside calibration line, absolute values uncertain",150 µmol/L
same,folic acid (folate) concentration in basal compartment,[1]; after 24 h supplementation,about 200 nmol/L
same,concentration profile in skin over application time,[2]; 30 to 240 minutes application time,tendency to increased calcium levoleucovorin concentration both in the top 5 μm and deeper layers of the skin
same,Amount recovered,[2]; application period 30 min,3.76 +/− 2.82 % of amount applied
same,Calcium levoleucovorin penetrated into the skin per area,[2]; application period 30 min,0.37 +/− 0.27 μmol/cm^2
same,Amount recovered,[2]; application period 60 min,3.28 +/− 2.58 % of amount applied
same,Calcium levoleucovorin penetrated into the skin per area,[2]; application period 60 min,0.32 +/− 0.25 μmol/cm^2
same,Amount recovered,[2]; application period 120 min,6.3 +/− 8.22 % of amount applied
same,Calcium levoleucovorin penetrated into the skin per area,[2]; application period 120 min,0.62 +/− 0.8 μmol/cm^2
same,Amount recovered,"[2]; application period 240 min, listed as Calcium levoleucovorin, calcium salt",9.96 +/− 3.26 % of amount applied
same,Amount recovered,"[2]; application period 240 min, listed as calcium levoleucovorin, calcium salt",10 % of amount applied
same,Calcium levoleucovorin penetrated into the skin per area,[2]; application period 240 min,0.97 +/− 0.32 μmol/cm^2
same,IC70 (concentration at which viability is reduced to 70% of the untreated control; usable dose),[3],0.13%
5-methyl-(6S)-tetrahydrofolic acid di choline salt [L-MTHF di choline],methylfolate concentration in basal compartment (comparison),"[1]; after 4 h, compared with models supplemented with L-FTHF or folate cream",significantly higher concentrations
same,formylfolate concentration in recipient compartment (basal),[1]; after 8 h,cannot be detected
same,methylfolate concentration in basal compartment (comparison),[1]; after 8 h,highest concentrations
same,formylfolate in basal compartment samples,[1]; after 24 h,cannot be detected
same,methylfolate concentration in basal compartment (comparison),[1]; after 24 h,significantly higher than the highest standard
same,"methylfolate concentration in basal compartment, maximum","[1]; after 24 h, peak outside calibration line, absolute value uncertain",120 µmol/L
same,IC70 (concentration at which viability is reduced to 70% of the untreated control; usable dose),[3],0.14%
same,free wound surface in photographs,[4]; after 6 h,hardly any surface is overgrown
same,free wound surface in photographs,[4]; after 24 h,it becomes difficult to mark a cell-free area
"N=C(N)NCCC[C@H](N)C(=O)O.N=C(N)NCCC[C@H](N)C(=O)O.Nc1nc2c(c(=O)[nH]1)N(C=O)[C@@H](CNc1ccc(C(=O)N[C@@H](CCC(=O)O)C(=O)O)cc1)CN2 [L-FTHF di arginine, 5-formyl-(6S)-tetrahydrofolic acid di L-arginine salt]",methylfolate concentration in basal compartment (comparison),[1]; after 24 h,approximately half
same,IC70 (concentration at which viability is reduced to 70% of the untreated control; usable dose),[3],0.12%
same,regrowth of cells into cell-free area of scratch,"[4]; after 24 h, versus standard medium and FBS control",promoted dose-dependent reversal of “healing”
